Data reported in publication PMC9090388, “Design, synthesis, biological evaluation and QSAR analysis of novel N-substituted benzimidazole derived carboxamides” (Journal of Enzyme Inhibition and Medicinal Chemistry, 2022).

Tests used:
[1] = Ferric reducing/antioxidant power (FRAP assay); assay type: biochemical; settings: triplicate; – = not active in the FRAP assay
Procedure: The FRAP method was carried out according to previously described procedures with some modifications to be compatible with an assay on a 96-well microplate. All results were expressed as Fe^2+ equivalents (Fe^2+ µmol).

[2] = DPPH free radical scavenging (reducing activity of the stable radical DPPH); assay type: biochemical; settings: DPPH 50 µM in absolute ethanol; – = did not show any DPPH activity
Procedure: The reducing activity of investigated systems was achieved by the DPPH method according to previously described procedures with modifications to assure the use in a 96-well microplate. Briefly, equal volumes of various concentrations of tested molecules (dissolved in DMSO) were added to the solution of DPPH (final concentration 50 µM in absolute ethanol). Ethanol and DMSO were used as control solutions in line with earlier reports.[27]

Structure (SMILES)	IC50 [2] [mM]	FRAP [1] [mmolFe^2+/mmolC]
Cc1cc(C(C)(C)C)c(O)c(C(C)(C)C)c1 [BHT, butylated hydroxytoluene, reference compound]	–	679.15
O=C(Nc1nc2ccccc2n1-c1ccccc1)c1ccccc1 [Compound 44, N-(1-Phenyl-1H-benzo[d]imidazol-2-yl)benzamide]	–	184.70 ± 3.22
COc1ccc(C(=O)Nc2nc3ccccc3[nH]2)c(OC)c1 [Compound 26, N-(1H-Benzo[d]imidazol-2-yl)-2,4-dimethoxybenzamide]	41.7 ± 1.51	166.61 ± 9.51
COc1ccc(C(=O)Nc2nc3ccc(C#N)cc3n2-c2ccccc2)c(OC)c1 [Compound 50, N-(6-Cyano-1-phenyl-1H-benzo[d]imidazol-2-yl)-2,4-dimethoxybenzamide]	–	506.70 ± 7.46
N#Cc1ccc2nc(NC(=O)c3ccccc3)n(-c3ccccc3)c2c1 [Compound 48, N-(6-Cyano-1-phenyl-1H-benzo[d]imidazol-2-yl)benzamide]	–	138.98 ± 32.68
COc1ccc(C(=O)Nc2nc3ccccc3n2-c2ccccc2)c(OC)c1 [Compound 46, 2,4-Dimethoxy-N-(1-phenyl-1H-benzo[d]imidazol-2-yl)benzamide]	8.48 ± 0.71	–
Cn1c(NC(=O)c2ccccc2)nc2ccc(C#N)cc21 [Compound 32, N-(6-Cyano-1-methyl-1H-benzo[d]imidazol-2-yl)benzamide]	–	160.27 ± 16.35
COc1ccccc1C(=O)Nc1nc2ccc(C#N)cc2n1-c1ccccc1 [Compound 49, N-(6-Cyano-1-phenyl-1H-benzo[d]imidazol-2-yl)-2-methoxybenzamide]	29.9 ± 1.3	221.31 ± 27.39

Further lines, with some results ahead:

IC50 [2] [mM]	Structure (SMILES)	FRAP [1] [mmolFe^2+/mmolC]
75.7 ± 6.08	COc1ccccc1C(=O)Nc1nc2ccccc2[nH]1 [Compound 25, N-(1H-Benzo[d]imidazol-2-yl)-2-methoxybenzamide]	–
4.58 ± 0.15	COc1ccccc1C(=O)Nc1nc2ccc(C#N)cc2n1CC(C)C [Compound 41, N-(6-Cyano-1-isobutyl-1H-benzo[d]imidazol-2-yl)-2-methoxybenzamide]	154.30 ± 5.67
26.58 ± 0.02	COc1ccc(C(=O)Nc2nc3ccccc3n2CC(C)C)c(OC)c1 [Compound 38, N-(1-Isobutyl-1H-benzo[d]imidazol-2-yl)-2,4-dimethoxybenzamide]	5.80 ± 0.15
8.71 ± 0.34	COc1ccccc1C(=O)Nc1nc2ccccc2n1-c1ccccc1 [Compound 45, 2-Methoxy-N-(1-phenyl-1H-benzo[d]imidazol-2-yl)benzamide]	–
5.35 ± 0.07	COc1ccc(C(=O)Nc2nc3ccc(C#N)cc3n2CC(C)C)c(OC)c1 [Compound 42, N-(6-Cyano-1-isobutyl-1H-benzo[d]imidazol-2-yl)-2,4-dimethoxybenzamide]	–
10.55 ± 0.03	COc1ccccc1C(=O)Nc1nc2ccccc2n1CC(C)C [Compound 37, N-(1-Isobutyl-1H-benzo[d]imidazol-2-yl)-2-methoxybenzamide]	–
6.05 ± 1.03	COc1ccccc1C(=O)Nc1nc2ccccc2n1C [Compound 29, 2-Methoxy-N-(1-methyl-1H-benzo[d]imidazol-2-yl)benzamide]	110.16 ± 1.44
49.6 ± 18.4	COc1ccc(C(=O)Nc2nc3ccccc3n2C)c(OC)c1 [Compound 30, 2,4-Dimethoxy-N-(1-methyl-1H-benzo[d]imidazol-2-il)benzamide]	–
